From patent US5849736A, “Isoxazoline and isoxazole fibrinogen receptor antagonists” (The DuPont Merck Pharmaceutical Company, priority 1995, dated 1998)
Structures can show the parent of a compound that is named as a salt. Where two headings read alike, the source gives them in different places.

System: platelet aggregation in human platelet rich plasma (PRP)
Assay: Platelet Aggregation Assay (platelet rich plasma, with or without esterase pretreatment)
Format: cell-based
Method in brief: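 Human citrated PRP from drug-free donors, PPP as 100% transmittance blank; compounds added at various concentrations before agonist (ADP, collagen, arachidonate, epinephrine or thrombin), aggregation followed by light transmittance. Ester prodrugs pretreated (10^-3 M F.C.) with 100 IU/mL porcine liver esterase, 2 h 37 °C; 8 min 37 °C preincubation, then 100 μM ADP, 5 min; % inhibition vs control, IC50.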

[1] = preincubated with 100 IU/mL porcine liver esterase 2 hours at 37° C., 100 μM ADP, read-out: Platelet Aggregation Assay IC50 (with esterase)
[2] = Platelet, preincubated with 100 IU/mL porcine liver esterase 2 hours at 37° C., 100 μM ADP, read-out: Platelet Aggregation Assay IC50 (with esterase)
[3] = Platelet, without esterase, read-out: Platelet Aggregation Assay IC50 (without esterase)

| SMILES | IC50 [2] | other results |
| --- | --- | --- |
| COC(=O)[C@H](CNC(=O)CC1CC(c2ccc(C(=N)N)cc2)=NO1)NC(=O)Nc1ccccc1 (stereo partly drawn) [Example 517] |  | IC50 [1]: < 10 µM |
| COC(=O)C(CNC(=O)CC1CC(c2ccc(C(=N)N)cc2)=NO1)NC(=O)Nc1ccc(F)cc1 (stereo not drawn) [Example 518] | < 10 µM |  |
| COC(=O)C(CNC(=O)CC1CC(c2ccc(C(=N)N)cc2)=NO1)NC(=O)Nc1cccc2ccccc12 (stereo not drawn) [Example 519] | < 10 µM |  |
| COC(=O)C(CNC(=O)CC1CC(c2ccc(C(=N)N)cc2)=NO1)NC(=O)NCc1ccccc1 (stereo not drawn) [Example 520] | < 10 µM |  |
| CCc1ccc(C(=O)NC(CNC(=O)CC2CC(c3ccc(C(=N)N)cc3)=NO2)C(=O)OC)cc1 (stereo not drawn) [Example 522] | < 10 µM |  |
| COC(=O)C(CNC(=O)CC1CC(c2ccc(C(=N)N)cc2)=NO1)NC(=O)c1ccc(-c2ccccc2)cc1 (stereo not drawn) [Example 523] | < 10 µM |  |
| COC(=O)C(CNC(=O)CC1CC(c2ccc(C(=N)N)cc2)=NO1)NC(=O)c1ccc2ccccc2c1 (stereo not drawn) [Example 524] | < 10 µM |  |
| COC(=O)C(CNC(=O)CC1CC(c2ccc(C(=N)N)cc2)=NO1)NC(=O)OCc1ccccc1Cl (stereo not drawn) [Example 525] | < 10 µM |  |
| N=C(N)c1ccc(C2=NOC(CC(=O)NCC(NC(=O)OCc3ccccc3Cl)C(=O)O)C2)cc1 (stereo not drawn) [Example 526] |  | IC50 [3]: < 10 µM |
| COC(=O)C(CNC(=O)CC1CC(c2ccc(C(=N)N)cc2)=NO1)NC(=O)OCc1ccccc1Br (stereo not drawn) [Example 527] | < 10 µM |  |
| N=C(N)c1ccc(C2=NOC(CC(=O)NCC(NC(=O)OCc3ccccc3Br)C(=O)O)C2)cc1 (stereo not drawn) [Example 528] |  | IC50 [3]: < 10 µM |
| CCCCCCOC(=O)NC(CNC(=O)CC1CC(c2ccc(C(=N)N)cc2)=NO1)C(=O)OC (stereo not drawn) [Example 529] | < 10 µM |  |
| CCCCCCOC(=O)NC(CNC(=O)CC1CC(c2ccc(C(=N)N)cc2)=NO1)C(=O)O (stereo not drawn) [Example 530] |  | IC50 [3]: < 10 µM |
| COC(=O)C(CNC(=O)CC1CC(c2ccc(C(=N)N)cc2)=NO1)NC(=O)OCC(C)C (stereo not drawn) [Example 531] | < 10 µM |  |
| CC(C)COC(=O)NC(CNC(=O)CC1CC(c2ccc(C(=N)N)cc2)=NO1)C(=O)O (stereo not drawn) [Example 532] |  | IC50 [3]: < 10 µM |
| COC(=O)C(CNC(=O)CC1CC(c2ccc(C(=N)N)cc2)=NO1)NC(=O)OCCC1CC1 (stereo not drawn) [Example 533] | < 10 µM |  |
| N=C(N)c1ccc(C2=NOC(CC(=O)NCC(NC(=O)OCCC3CC3)C(=O)O)C2)cc1 (stereo not drawn) [Example 534] |  | IC50 [3]: < 10 µM |
| COC(=O)C(CNC(=O)CC1CC(c2ccc(C(=N)N)cc2)=NO1)NC(=O)OCCC1CCCC1 (stereo not drawn) [Example 535] | < 10 µM |  |
| COC(=O)C(CNC(=O)CC1CC(c2ccc(C(=N)N)cc2)=NO1)NC(=O)OCCCC(F)(F)F (stereo not drawn) [Example 537] | < 10 µM |  |
| N=C(N)c1ccc(C2=NOC(CC(=O)NCC(NC(=O)OCCCC(F)(F)F)C(=O)O)C2)cc1 (stereo not drawn) [Example 538] |  | IC50 [3]: < 10 µM |
| CCCS(=O)(=O)NC(CNC(=O)CC1CC(c2ccc(C(=N)N)cc2)=NO1)C(=O)OC (stereo not drawn) [Example 539] |  | IC50 [1]: < 10 µM |

| SMILES | IC50 [2] | other results |
| --- | --- | --- |
| Cc1ccccc1C(=O)N[C@@H](CNC(=O)CC1CC(c2ccc(C(=N)N)cc2)=NO1)C(=O)O (stereo partly drawn) [Example 540, N^2-methylphenylcarbonyl-N^3-[3-(4-amidinophenyl)isoxazolin-5-(R,S)-ylacetyl]-(S)-2,3-diaminopropionicacid] | < 10 µM |  |
| COC(=O)C(CNC(=O)CC1CC(c2ccc(C(=N)N)cc2)=NO1)NS(=O)(=O)c1cc(C)c(Cl)cc1C (stereo not drawn) [Example 541] | < 10 µM |  |
| COC(=O)C(CNC(=O)CC1CC(c2ccc(C(=N)N)cc2)=NO1)NS(=O)(=O)c1cccc(Cl)c1Cl (stereo not drawn) [Example 542] | < 10 µM |  |
| COC(=O)C(CNC(=O)CC1CC(c2ccc(C(=N)N)cc2)=NO1)NS(=O)(=O)c1ccccc1Br (stereo not drawn) [Example 543] | < 10 µM |  |
| COC(=O)C(CNC(=O)CC1CC(c2ccc(C(=N)N)cc2)=NO1)NS(=O)(=O)c1cccc(Br)c1 (stereo not drawn) [Example 544] | < 10 µM |  |
| COC(=O)C(CNC(=O)CC1CC(c2ccc(C(=N)N)cc2)=NO1)NS(=O)(=O)c1ccc(Br)cc1 (stereo not drawn) [Example 545] | < 10 µM |  |
| COC(=O)C(CNC(=O)CC1CC(c2ccc(C(=N)N)cc2)=NO1)NS(=O)(=O)c1ccc(-c2ccccc2)cc1 (stereo not drawn) [Example 546] | < 10 µM |  |
| COC(=O)C(CNC(=O)CC1CC(c2ccc(C(=N)N)cc2)=NO1)NS(=O)(=O)c1c(C)nn(C)c1Cl (stereo not drawn) [Example 547] | < 10 µM |  |
| COC(=O)C(CNC(=O)CC1CC(c2ccc(C(=N)N)cc2)=NO1)NS(=O)(=O)c1sccc1Br (stereo not drawn) [Example 548] | < 10 µM |  |
| COC(=O)C(CNC(=O)CC1CC(c2ccc(C(=N)N)cc2)=NO1)NS(=O)(=O)c1ccc(Br)s1 (stereo not drawn) [Example 549] | < 10 µM |  |
| COC(=O)C(CNC(=O)CC1CC(c2ccc(C(=N)N)cc2)=NO1)NS(=O)(=O)c1ccc(-c2cc(C(F)(F)F)n(C)n2)s1 (stereo not drawn) [Example 550] | < 10 µM |  |
| COC(=O)C(CNC(=O)CC1CC(c2ccc(C(=N)N)cc2)=NO1)NS(=O)(=O)c1ccc(-c2ccon2)s1 (stereo not drawn) [Example 551] | < 10 µM |  |
| COC(=O)C(CNC(=O)CC1CC(c2ccc(C(=N)N)cc2)=NO1)NS(=O)(=O)c1ccc(-c2ccccn2)s1 (stereo not drawn) [Example 552] | < 10 µM |  |
| COC(=O)C(CNC(=O)CC1CC(c2ccc(C(=N)N)cc2)=NO1)NS(=O)(=O)c1sc(NC(C)=O)nc1C (stereo not drawn) [Example 553] | < 10 µM |  |
| COC(=O)C(CNC(=O)CC1CC(c2ccc(C(=N)N)cc2)=NO1)NS(=O)(=O)c1cc2ccccc2s1 (stereo not drawn) [Example 555] | < 10 µM |  |
| COC(=O)C(CNC(=O)CC1CC(c2ccc(C(=N)N)cc2)=NO1)NS(=O)(=O)c1sc2ccccc2c1C (stereo not drawn) [Example 556] | < 10 µM |  |
| Cc1cccc(S(=O)(=O)N[C@@H](CNC(=O)CC2CC(c3ccc(C(=N)N)cc3)=NO2)C(=O)O)c1 (stereo partly drawn) [Example 587A, N^2-3-methylphenylsulfonyl-N^3-[3-(4-amidinophenyl)isoxazolin-5S-ylacetyl]-S-2,3-diaminopropionic acid] |  | IC50 [3]: < 10 µM |
| CCCCOC(=O)N[C@@H](CNC(=O)CC1CC(c2ccc(NC(=N)N)cc2)=NO1)C(=O)OC (stereo partly drawn) [Example 602, Methyl N^2-n-butyloxycarbonyl-N^3-[3-(4-guanidinophenyl)isoxazolin-5-(R,S)-ylacetyl]-(S)-2,3-diaminopropionate, trifluoroacetic acid salt] | < 10 µM |  |
| COC(=O)CC(CNS(=O)(=O)N(C)C)NC(=O)CC1CC(c2ccc(C(=N)N)cc2)=NO1 (stereo not drawn) [Example 611] | < 10 µM |  |
| COC(=O)CC(CN1CCCC1)NC(=O)CC1CC(c2ccc(C(=N)N)cc2)=NO1 (stereo not drawn) [Example 612] | < 10 µM |  |
| CCCCOC(=O)NC(CNC(=O)CC1CC(c2ccc(C(=N)N)cc2F)=NO1)C(=O)OC (stereo not drawn) [Example 613] | < 10 µM |  |

| SMILES | IC50 [2] | other results |
| --- | --- | --- |
| CCCCOC(=O)NC(CNC(=O)CC1CC(CCCC2CCNCC2)=NO1)C(=O)OC (stereo not drawn) [Example 616] |  | IC50 [3]: < 10 µM |
| Cn1cnc(S(=O)(=O)NC(CNC(=O)CC2CC(c3ccc(C(=N)N)cc3)=NO2)C(=O)O)c1 (stereo not drawn) [Example 643] | < 10 µM |  |
| Cc1nc(C)c(S(=O)(=O)NC(CNC(=O)CC2CC(c3ccc(C(=N)N)cc3)=NO2)C(=O)O)s1 (stereo not drawn) [Example 644] | < 10 µM |  |
| COC(=O)[C@H](CN(C)C(=O)CC1CC(c2ccc(C(=N)N)cc2)=NO1)NC(=O)OCc1ccccc1 (stereo partly drawn) [Example 651, Methyl N^2-benzyloxycarbonyl-N^3-methyl-N^3-[3-(4-amidinophenyl)isoxazolin-5-(R,S)-ylacetyl]-(S)-2,3-diaminopropionate, trifluoroacetic acid salt] | < 10 µM |  |
| COC(=O)C(CNC(=O)Cc1cc(-c2ccc(C(=N)N)cc2)no1)NC(=O)OCc1ccccc1 (stereo not drawn) [Example 727] | < 10 µM |  |
| CCCCOC(=O)NC(CNC(=O)Cc1cc(-c2ccc(C(=N)N)cc2)no1)C(=O)OC (stereo not drawn) [Example 729] | < 10 µM |  |
| Cc1cccc(S(=O)(=O)NC(CNC(=O)Cc2cc(-c3ccc(C(=N)N)cc3)no2)C(=O)O)c1 (stereo not drawn) [Example 798] | < 10 µM |  |
| CCCCOC(=O)N[C@@H](CNC(=O)CC1=NOC(c2ccc(C(=N)N)cc2)C1)C(=O)OC (stereo partly drawn) [Example 829, Methyl N^2-n-butyloxycarbonyl-N^3-[5-(4-amidinophenyl)isoxazolin-3-ylacetyl]-(2S)-2,3-diaminopropionate] | < 10 µM |  |
| N=C(N)NCCCC1CC(C(=O)NCC(NC(=O)OCc2ccccc2)C(=O)O)=NO1 (stereo not drawn) [Example 1284] | < 10 µM |  |
| N=C(N)NCCCCC1CC(C(=O)NCC(NC(=O)OCc2ccccc2)C(=O)O)=NO1 (stereo not drawn) [Example 1321] | < 10 µM |  |
| N=C(N)NCCC1CC(C(=O)NCC(NC(=O)OCc2ccccc2)C(=O)O)=NO1 (stereo not drawn) [Example 1525] | < 10 µM |  |
| N=C(N)NCCCC1=NOC(CC(=O)NCC(NC(=O)OCc2ccccc2)C(=O)O)C1 (stereo not drawn) [Example 1694] | < 10 µM |  |
| N=C(N)NCCCCC1=NOC(CC(=O)NCC(NC(=O)OCc2ccccc2)C(=O)O)C1 (stereo not drawn) [Example 1731] | < 10 µM |  |
| Cc1noc(C)c1S(=O)(=O)N[C@@H](CNC(=O)C[C@H]1CC(c2ccc(C(=N)N)cc2)=NO1)C(=O)O [Example 2104] | < 10 µM |  |
| N=C(N)NCCC1=NOC(CC(=O)NCC(NC(=O)OCc2ccccc2)C(=O)O)C1 (stereo not drawn) [Example 2109] | < 10 µM |  |
| N=C(N)NCCCCCC1=NOC(CC(=O)NCC(NC(=O)OCc2ccccc2)C(=O)O)C1 (stereo not drawn) [Example 2110] | < 10 µM |  |
| COC(=O)C(CNC(=O)CC1CC(c2ccc(C(=N)NCc3ccccc3OC)cc2)=NO1)NS(=O)(=O)c1ccccc1C (stereo not drawn) [Example 2111] | < 10 µM |  |
| COc1ccccc1CNC(=N)c1ccc(C2=NOC(CC(=O)NCC(NS(=O)(=O)c3ccccc3C)C(=O)O)C2)cc1 (stereo not drawn) [Example 2112] | < 10 µM |  |
| CCCCNC(=N)c1ccc(C2=NOC(CC(=O)NCC(NS(=O)(=O)c3ccccc3C)C(=O)OC)C2)cc1 (stereo not drawn) [Example 2113] | < 10 µM |  |
| CCCCNC(=N)c1ccc(C2=NOC(CC(=O)NCC(NS(=O)(=O)c3ccccc3C)C(=O)O)C2)cc1 (stereo not drawn) [Example 2114] | < 10 µM |  |
| CCNC(=N)c1ccc(C2=NOC(CC(=O)NCC(NS(=O)(=O)c3ccccc3C)C(=O)OC)C2)cc1 (stereo not drawn) [Example 2115] | < 10 µM |  |
